Experimental data from US8877746B2, “Compositions for delivery of insoluble agents” (Cardioklne, Inc, priority 2009, dated 2014).
In brackets after ≈: the same amount, converted by molar mass.

How the values were obtained:
[1] = Solubility in 1.5% SDS at 25° C.; type: physicochemical
[2] = Solubility of lixivaptan in water; type: physicochemical
Description: Lixivaptan is very poorly soluble in water (less than 20 ng/mL). Salt formation (a frequently used approach to increase aqueous solubility) was not possible. The bioavailability of lixivaptan can be extremely low in conventional dosage forms (i.e., when blended with excipients and compressed into tablets or filled into capsules).

Solubility (mg/mL in 1.5% SDS, 25° C.) 1 h ([1]; 1 h): 0.019 mg/mL (≈ 40.1 µM)
solubility at 24 h ([1]; aqueous with cosolvent or surfactant or cyclodextrin, 24 h, read-out: Solubility (mg/mL in 1.5% SDS, 25° C.) 24 h): 0.024 mg/mL (≈ 50.6 µM)
solubility [2]: < 0.02 µg/mL
Compound: Cc1ccc(F)cc1C(=O)Nc1ccc(C(=O)N2Cc3cccn3Cc3ccccc32)c(Cl)c1 [Lixivaptan, 5-fluoro-2-methyl-N-[4-(5H-pyrrolo[2,1-c]-[1,4]-benzodiazepin-10(11H)-ylcarbonyl)-3-chlorophenyl]benzamide]
